According to PubChem BioAssay (NCI):
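Where inhibition never reached the appropriate level, the endpoint shown equals the highest concentration tested. Otherwise, values were interpolated linearly from a five-concentration, 48-hour dose response in 96-well plates. TGI: total growth inhibition.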

Tested on: SN12K1 renal
Assay: growth of human tumour cells (NCI), 48 h

O=c1n(CC2CO2)c(=O)n(CC2CO2)c(=O)n1CC1CO1 (stereo unspecified)
TGI: 174 µM
